This data set in a line: Partition coefficient (logP). It counts as physicochemical. To be noted: octanol/water.

The term logP denotes a log measure of how a compound divides between an organic and an aqueous phase. Consider `CCCCCCN1C(=O)c2c3nc(cc4[nH]c(cc5nc(cc6[nH]c2c(c6C)C1=O)[C@H](CC)[C@H]5C)c(C(C)OC)c4C)[C@@H](C)[C@@H]3CCC(=O)OCCC` (stereo partly drawn), for which the logP (read-out: logP) is 8.18.

Regarding `CCCCCCCOC(C)C1=C(C)c2cc3[nH]c(c4c5[nH]c(cc6nc(cc1n2)[C@H](C)[C@H]6CC)c(C)c5C(=O)N(CCCCCC)C4=O)[C@@H](CCC(=O)OCCC)[C@@H]3C` (stereo partly drawn), the logP worked out at 11.19. Same read-out and setting: then `CCCCCCN1C(=O)C2=C(C)c3cc4[nH]c(cc5[nH]c(cc6nc(c(c2n3)C1=O)[C@@H](CCC(=O)OCCC)[C@@H]6C)c(C)c5C(C)OCCC)[C@H](C)[C@H]4CC` (stereo partly drawn), with 9.16.
